Where a name gives a salt, the structure may show the parent alone. Activity calls are given as the source filed them.
Tests used:
[1] = Luminescence Cell-Based Dose Response HTS to Identify Activators of Luciferase Translation or Activity in H4 […] Cells. [Related pubchem assays: 1829 (Project Summary), 1814 (Primary HTS)]; format: functional
[2] = molecular target: Eukaryotic translation initiation factor 4E (Mus musculus, UniProt P63073); assay: blockers of eIF4G binding by eIF4E – biochemical, TR-FRET, dose response (AID 855); format: functional;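 also: potency for disrupting eIF4E binding to eIF4GI seen as loss of FRET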
[3] = Luminescence Cell-Based Dose Confirmation HTS to Identify Activators of 5'UTR Stem-Loop Driven Alpha-Synuclein mRNA Translation in H4 Neuroglioblastoma Cells. [Related pubchem assays: 1829 (Project Summary), 1814 (Primary HTS)]; format: functional
[4] = molecular target: T1, High affinity choline transporter 1 (Homo sapiens, UniProt Q9GZV3); assay: human choline transporter blockers, potency – cell-based, 5-point CRC, membrane potential dye, dose response (AID 504840); format: functional
T1 sequence (Q9GZV3 whole entry): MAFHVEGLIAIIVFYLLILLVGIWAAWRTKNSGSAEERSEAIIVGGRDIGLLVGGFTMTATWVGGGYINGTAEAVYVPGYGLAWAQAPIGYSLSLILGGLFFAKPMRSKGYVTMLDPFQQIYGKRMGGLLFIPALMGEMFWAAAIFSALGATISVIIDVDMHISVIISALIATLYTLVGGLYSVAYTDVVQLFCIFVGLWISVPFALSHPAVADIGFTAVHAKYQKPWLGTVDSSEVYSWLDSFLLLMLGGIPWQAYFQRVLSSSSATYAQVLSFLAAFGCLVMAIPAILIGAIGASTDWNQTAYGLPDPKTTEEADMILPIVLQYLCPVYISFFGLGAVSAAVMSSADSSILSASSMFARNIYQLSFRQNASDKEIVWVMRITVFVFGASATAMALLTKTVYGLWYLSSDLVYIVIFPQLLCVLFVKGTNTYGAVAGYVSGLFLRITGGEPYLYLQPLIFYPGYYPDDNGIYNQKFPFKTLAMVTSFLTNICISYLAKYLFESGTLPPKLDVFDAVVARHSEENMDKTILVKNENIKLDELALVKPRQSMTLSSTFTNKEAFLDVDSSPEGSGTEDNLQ

H4 = assay: Luminescence Cell-Based Dose Response HTS to Identify Activators of 5'UTR Stem-Loop Driven Prion Protein mRNA Translation in H4 Neuroglioblastoma Cells. [Related pubchem assays: 1829 (Project Summary), 1814 (Primary HTS)]; format: functional; settings: Homo sapiens
[5] = molecular target: G-protein coupled receptor 55 (Homo sapiens, UniProt Q9Y2T6); assay: inhibition of LPI-stimulated GPR55 beta-arrestin translocation – imaging, U2OS, beta-arrestin-GFP, LPI agonist, primary screen (AID 2013); format: functional;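 also: antagonist potency measured as reduced agonist-driven arrestin aggregation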
Coagulation factor XII = molecular target: T2, Coagulation factor XII (Homo sapiens, UniProt P00748); assay: Factor XIIa Dose Response Confirmation from Single Well HTS. [Related pubchem assays (depositor defined):AID701]; format: functional
T2 sequence (P00748 whole entry): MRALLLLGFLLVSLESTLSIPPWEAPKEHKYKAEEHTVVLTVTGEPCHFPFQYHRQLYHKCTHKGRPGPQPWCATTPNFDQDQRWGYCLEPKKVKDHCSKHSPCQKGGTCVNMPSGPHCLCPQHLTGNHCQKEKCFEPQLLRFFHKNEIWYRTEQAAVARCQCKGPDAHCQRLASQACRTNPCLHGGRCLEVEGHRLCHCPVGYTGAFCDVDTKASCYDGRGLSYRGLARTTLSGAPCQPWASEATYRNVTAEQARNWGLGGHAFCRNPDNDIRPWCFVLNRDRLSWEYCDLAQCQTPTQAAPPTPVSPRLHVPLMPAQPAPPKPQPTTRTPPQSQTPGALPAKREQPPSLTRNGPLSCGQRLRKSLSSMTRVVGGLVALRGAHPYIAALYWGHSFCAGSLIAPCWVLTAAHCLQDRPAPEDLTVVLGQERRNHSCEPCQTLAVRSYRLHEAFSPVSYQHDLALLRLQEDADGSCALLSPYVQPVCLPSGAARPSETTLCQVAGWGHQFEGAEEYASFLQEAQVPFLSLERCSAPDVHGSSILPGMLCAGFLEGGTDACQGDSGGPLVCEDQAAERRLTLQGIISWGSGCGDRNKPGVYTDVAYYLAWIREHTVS

[6] = viability of uninfected HEp-2 cells – cell-based, HTS, cytotoxicity control for RSV inhibitor project, dose response (AID 2410); format: functional; settings: human respiratory syncytial virus
Nonstructural protein 1 = Nonstructural protein 1 (Influenza A virus, UniProt Q194T2); format: functional, Influenza A virus (A/California/07/2009(H1N1))
HEK293 = assay: EBV LMP1 TES2 canonical NF-kB signalling blockers – cell-based, HEK293, luciferase, cherry-pick, dose response (AID 588343); format: functional; settings: Homo sapiens
Prothrombin = Prothrombin (Bos taurus, UniProt P00735); assay: thrombin protease inhibitors – biochemical, fluorescence polarization, uHTS hits, dose response (AID 602369); format: functional
[7] = molecular target: 72 kDa type IV collagenase (Homo sapiens, UniProt P08253); assay: Dose Response validation of uHTS RPN11 inhibitor hits using a MMP-2 Fluorescence assay.; format: functional
[8] = molecular target: 26S proteasome non-ATPase regulatory subunit 14 (Homo sapiens, UniProt O00487); assay: inhibition of proteasome subunit RPN11 – biochemical, fluorescence polarization, uHTS hits, confirmation (AID 602368); format: functional
[9] = NIH3T3 cell viability loss – ATP luminescence, mouse fibroblasts, counter-screen, dose response (AID 2010); format: functional, cell-based;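 also: cells exposed to compound for about 90 hours before reading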
[10] = Trypanosoma cruzi growth suppression in host cells – NIH3T3 host cells, beta-gal luminescence, confirmation (AID 2044); format: functional, cell-based;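 also: intracellular parasites grown in NIH/3T3 mouse fibroblasts as host cells; luminescent beta-galactosidase reporter signal from transgenic T. cruzi replicating inside host cells; inhibitors lower the luminescence signal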
Estrogen receptor beta [11] = molecular target: T3, Estrogen receptor beta (Homo sapiens, UniProt Q92731); assay: blockers of SRC-3 recruitment to ERβ – biochemical, ELISA, streptavidin-HRP readout, orthogonal assay, confirmation (AID 1060)
BJ [12] = assay: growth inhibition of engineered Ras-driven BJ cells – cell-based, alamar blue fluorescence, cherrypicked samples, dose response (AID 2631); format: functional; settings: Homo sapiens;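 also: confirmatory dose-response assay in RAS-dependent BJ fibroblasts engineered with TERT, LT and ST, with cytotoxicity read by fluorescence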
[13] = HEK-293T viability loss after treatment – luminescence, T-cell screen hits, cytotoxicity control for TCR NF-kB inhibitor project, dose response (AID 489026); format: functional, cell-based;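 also: cells exposed to compound about 14 hours before the viability readout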
BJ [14] = assay: cells; format: functional, cell-based; settings: Homo sapiens
BJ [15] = assay: BJ-TERT-LT-ST fibroblast viability loss – cell-based, RAS-independent, luminescence, dose response (AID 1935); format: functional; settings: Homo sapiens;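 also: BJ fibroblasts immortalized with TERT plus LT and ST oncogenes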
Estrogen receptor beta [16] = molecular target: T3, Estrogen receptor beta
[17] = Luminescence Cell-Based Dose Confirmation HTS to Identify Inhibitors of Platelet Dense Granule Release. [Related pubchem assays: 1663 (Primary HTS), 1678 (Summary of Project)]; format: functional
[18] = DRD fibroblast viability loss – cell-based, non-viral oncogenic, luminescence, dose response (AID 1934); format: functional; settings: Homo sapiens
[19] = molecular target: Luciferin 4-monooxygenase (Photinus pyralis, UniProt P08659); assay: inhibition of purified Photinus pyralis luciferase – biochemical, luminescence, dose response (AID 1891)
BJ [20] = assay: BJ-TERT fibroblast viability loss – cell-based, RAS-independent, luminescence, dose response (AID 1933); format: functional; settings: Homo sapiens
[21] = molecular target: T4, Low molecular weight phosphotyrosine protein phosphatase (Homo sapiens, UniProt P24666); format: functional; settings: read-out: IC50_Mean;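 also: Dose-response confirmation assay measuring inhibition of LMPTP enzyme activity by fluorescence intensity read-out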
T4 sequence (P24666 whole entry): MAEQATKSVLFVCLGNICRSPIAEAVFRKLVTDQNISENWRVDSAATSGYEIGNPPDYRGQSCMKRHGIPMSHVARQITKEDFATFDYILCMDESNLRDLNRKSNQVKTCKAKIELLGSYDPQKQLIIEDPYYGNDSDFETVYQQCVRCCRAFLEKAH

[22] = loss of viability in HepG2 cells – cell-based, CellTiter-Glo, cherry-picked, cytotoxicity control for Shn3 inhibitor project, dose response (AID 624134); format: functional
[23] = HepG2 cell cytotoxicity, dose response, cytotoxicity control for non-replicating M. tuberculosis project (AID 489018); format: functional; settings: Mycobacterium tuberculosis
cells = format: functional
[24] = THP-1 cell cytotoxicity, dose response, cytotoxicity control for non-replicating M. tuberculosis project (AID 489025); format: functional
[25] = molecular target: T5, Ubiquitin-conjugating enzyme E2 N (Homo sapiens, UniProt P61088); format: functional;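 also: Dose-response confirmation in a TR-FRET assay detecting UBC13-driven polyubiquitin chain formation, inhibition measured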
T5 sequence (P61088 whole entry): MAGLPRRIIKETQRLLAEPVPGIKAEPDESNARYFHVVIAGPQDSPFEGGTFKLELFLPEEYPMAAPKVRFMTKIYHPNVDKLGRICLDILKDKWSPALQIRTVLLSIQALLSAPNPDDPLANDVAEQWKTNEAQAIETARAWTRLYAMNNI

[26] = Vero E6 cell cytotoxicity, dose response, cytotoxicity control for non-replicating M. tuberculosis project, secondary assay (AID 492998); format: functional, VeroE6; settings: Vero C1008
Melanocortin receptor 4 = Melanocortin receptor 4 (Homo sapiens, UniProt P32245); format: functional, cell-based;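 also: Cell-based assay with luminescence read-out, confirmatory dose-response testing for agonist activity of biased ligands at MC4R; human U2OS cells with tagged receptor and beta-arrestin; potency of agonists that increase receptor coupling to beta-arrestin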
[27] = reduction of Shn3 3'UTR-driven luciferase in osteoblasts – cell-based, Clone20 osteoblasts, firefly luciferase, cherry-picked, dose response (AID 624132); format: functional;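 also: firefly luciferase luminescence from reporter carrying the Shn3 3'UTR in osteoblasts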
[28] = Fluorescence-based cell-based high throughput dose response assay for inhibitors of the interaction of nucleotide-binding oligomerization domain containing 2 (NOD2) and the receptor-interacting serine-threonine kinase 2 (RIPK2).; format: functional, Homo sapiens; settings: Homo sapiens
[29] = non-specific 3'UTR reporter inhibition in Clone20-Shn3RL – cell-based, Renilla luciferase, cherry-picked, counter-screen for Shn3 inhibitor project, dose response (AID 624133); format: functional
Vero [30] = assay: cells; format: functional; settings: Chlorocebus sabaeus
[31] = molecular target: Heat shock protein HSP 90-alpha (Homo sapiens, UniProt P07900); format: functional, organism-based
Vero [32] = assay: cells; format: functional, cell-based; settings: Chlorocebus sabaeus

Sequence of 26S proteasome non-ATPase regulatory subunit 14 (O00487 whole entry): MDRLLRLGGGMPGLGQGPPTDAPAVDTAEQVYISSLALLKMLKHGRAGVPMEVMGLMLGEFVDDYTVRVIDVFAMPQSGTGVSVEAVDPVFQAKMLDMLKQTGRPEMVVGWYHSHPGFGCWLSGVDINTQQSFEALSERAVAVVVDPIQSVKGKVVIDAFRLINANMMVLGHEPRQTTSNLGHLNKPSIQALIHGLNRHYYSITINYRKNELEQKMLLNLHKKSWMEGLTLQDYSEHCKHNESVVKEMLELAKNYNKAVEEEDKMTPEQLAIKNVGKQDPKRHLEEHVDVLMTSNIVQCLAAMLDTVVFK
Sequence of Nonstructural protein 1 (Q194T2 whole entry): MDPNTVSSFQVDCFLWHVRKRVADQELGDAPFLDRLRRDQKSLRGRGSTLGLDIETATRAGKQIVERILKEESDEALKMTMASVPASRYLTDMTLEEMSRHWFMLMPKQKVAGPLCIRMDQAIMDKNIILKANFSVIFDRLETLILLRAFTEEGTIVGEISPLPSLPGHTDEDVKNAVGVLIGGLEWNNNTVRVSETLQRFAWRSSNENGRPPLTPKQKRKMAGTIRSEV
Sequence of 72 kDa type IV collagenase (P08253 whole entry): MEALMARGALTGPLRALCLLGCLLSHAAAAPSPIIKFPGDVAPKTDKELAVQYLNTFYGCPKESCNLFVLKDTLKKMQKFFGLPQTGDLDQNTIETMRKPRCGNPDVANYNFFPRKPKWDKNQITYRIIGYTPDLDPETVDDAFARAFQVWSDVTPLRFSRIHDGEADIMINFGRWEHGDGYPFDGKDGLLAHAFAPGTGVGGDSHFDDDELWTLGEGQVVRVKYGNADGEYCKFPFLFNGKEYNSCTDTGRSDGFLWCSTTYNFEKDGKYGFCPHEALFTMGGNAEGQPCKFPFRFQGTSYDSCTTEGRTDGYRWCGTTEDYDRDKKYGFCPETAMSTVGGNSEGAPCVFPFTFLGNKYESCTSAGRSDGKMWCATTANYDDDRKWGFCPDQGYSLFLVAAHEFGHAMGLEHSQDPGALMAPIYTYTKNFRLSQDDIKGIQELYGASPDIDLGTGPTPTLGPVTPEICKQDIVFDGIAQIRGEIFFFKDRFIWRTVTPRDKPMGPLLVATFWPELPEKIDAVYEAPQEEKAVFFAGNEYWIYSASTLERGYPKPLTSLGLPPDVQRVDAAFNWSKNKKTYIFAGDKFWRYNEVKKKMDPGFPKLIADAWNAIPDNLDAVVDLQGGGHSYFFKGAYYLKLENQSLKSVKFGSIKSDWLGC
T3 sequence (Q92731 whole entry): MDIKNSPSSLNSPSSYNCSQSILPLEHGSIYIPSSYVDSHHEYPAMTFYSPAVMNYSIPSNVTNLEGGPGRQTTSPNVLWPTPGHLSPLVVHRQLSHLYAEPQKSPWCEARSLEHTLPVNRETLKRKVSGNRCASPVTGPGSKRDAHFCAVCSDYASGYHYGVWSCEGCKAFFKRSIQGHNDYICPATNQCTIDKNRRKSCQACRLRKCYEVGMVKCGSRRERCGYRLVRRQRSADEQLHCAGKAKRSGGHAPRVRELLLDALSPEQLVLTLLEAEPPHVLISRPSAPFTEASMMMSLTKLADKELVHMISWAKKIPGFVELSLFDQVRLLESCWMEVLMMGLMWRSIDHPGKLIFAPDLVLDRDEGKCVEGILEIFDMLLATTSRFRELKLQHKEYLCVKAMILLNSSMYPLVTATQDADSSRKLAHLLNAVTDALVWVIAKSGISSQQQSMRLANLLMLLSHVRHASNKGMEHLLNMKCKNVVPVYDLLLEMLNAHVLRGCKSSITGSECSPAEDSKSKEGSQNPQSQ
Sequence of G-protein coupled receptor 55 (Q9Y2T6 whole entry): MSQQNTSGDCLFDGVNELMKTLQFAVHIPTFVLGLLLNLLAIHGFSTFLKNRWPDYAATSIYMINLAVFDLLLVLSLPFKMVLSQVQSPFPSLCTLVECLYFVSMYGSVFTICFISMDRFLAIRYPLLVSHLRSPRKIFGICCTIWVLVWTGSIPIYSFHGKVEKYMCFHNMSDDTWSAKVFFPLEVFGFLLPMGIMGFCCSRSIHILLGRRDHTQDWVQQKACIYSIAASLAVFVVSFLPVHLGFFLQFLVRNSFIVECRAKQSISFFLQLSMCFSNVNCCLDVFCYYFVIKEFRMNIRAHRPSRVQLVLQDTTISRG
Sequence of Eukaryotic translation initiation factor 4E (P63073 whole entry): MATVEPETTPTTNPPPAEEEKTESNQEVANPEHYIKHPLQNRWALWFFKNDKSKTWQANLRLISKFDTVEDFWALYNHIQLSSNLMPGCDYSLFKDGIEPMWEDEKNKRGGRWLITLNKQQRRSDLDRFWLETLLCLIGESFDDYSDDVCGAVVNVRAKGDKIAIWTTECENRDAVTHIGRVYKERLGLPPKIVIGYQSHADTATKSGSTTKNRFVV
Sequence of Melanocortin receptor 4 (P32245 whole entry): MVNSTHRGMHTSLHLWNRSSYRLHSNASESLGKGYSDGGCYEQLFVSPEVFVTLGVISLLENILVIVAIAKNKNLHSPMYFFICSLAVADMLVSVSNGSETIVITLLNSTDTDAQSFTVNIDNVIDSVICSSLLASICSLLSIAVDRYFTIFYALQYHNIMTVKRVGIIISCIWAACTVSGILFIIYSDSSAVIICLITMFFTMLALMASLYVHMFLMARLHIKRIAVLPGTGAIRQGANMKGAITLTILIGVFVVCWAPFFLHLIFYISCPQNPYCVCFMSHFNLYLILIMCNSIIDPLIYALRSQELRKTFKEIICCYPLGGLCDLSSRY
Sequence of Luciferin 4-monooxygenase (P08659 whole entry): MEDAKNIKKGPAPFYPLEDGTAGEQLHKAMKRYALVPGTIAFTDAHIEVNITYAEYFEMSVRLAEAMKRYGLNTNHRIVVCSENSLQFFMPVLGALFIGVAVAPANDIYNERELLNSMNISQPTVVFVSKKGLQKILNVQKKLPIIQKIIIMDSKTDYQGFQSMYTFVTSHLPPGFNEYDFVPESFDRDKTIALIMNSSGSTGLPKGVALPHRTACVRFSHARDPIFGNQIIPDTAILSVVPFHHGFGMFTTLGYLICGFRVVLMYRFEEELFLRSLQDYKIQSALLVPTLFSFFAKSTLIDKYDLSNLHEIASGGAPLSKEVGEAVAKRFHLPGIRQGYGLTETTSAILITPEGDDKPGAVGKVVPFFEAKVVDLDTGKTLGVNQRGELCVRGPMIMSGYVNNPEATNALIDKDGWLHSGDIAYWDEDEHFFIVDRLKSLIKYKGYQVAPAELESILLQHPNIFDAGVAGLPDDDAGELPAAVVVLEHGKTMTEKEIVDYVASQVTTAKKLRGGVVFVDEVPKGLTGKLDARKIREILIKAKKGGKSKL

## O=C(OCC(=O)c1c[nH]c2ccccc12)c1cccc(O)c1
[1]
  EC50: 12.3 µM (active)
[2]
  IC50: > 64 µM (inactive)
[3]
  EC50: 5.16 µM (active)
[4]
  IC50: 15.8 µM (active)
H4
  EC50: 8.02 µM (active)

## CCc1ccc(C(=O)NC(=S)Nc2ccccc2N2CCOCC2)cc1
[5]
  IC50: 1.2 µM (active)

## O=C(Nc1nc2n(n1)C(c1ccc(Cl)cc1)CC(c1ccc(Cl)cc1)N2)c1ccco1 (stereo not given)
Coagulation factor XII
  IC50: > 50 µM (inactive)
[6]
  CC50: 12.8 µM (active)

## CCN(C(C)=O)c1cnc(C=NNC(N)=S)c2ccccc12
Nonstructural protein 1
  IC50: 6.69 µM (active)

## O=C(c1ccccc1)N1CCCC(c2nc(O)c3nnn(Cc4ccccc4)c3n2)C1 (stereo not given)
Coagulation factor XII
  IC50: > 50 µM (inactive)

## CCOC(=O)c1cnc2c(c(C)nn2C)c1Oc1ccc(Cl)cc1
[5]
  IC50: 3.54 µM (active)

## OC(CCCN1CCCCC1)(c1ccccc1)c1ccccc1 [DIPHENIDOL HYDROCHLORIDE]
HEK293
  AC50: 323 µM (active)

## Cc1ccc(-c2ccc(/C=C3\SC(N4CCOCC4)=NC3=O)o2)cc1
Prothrombin
  IC50: 7.72 µM (active)
[7]
  IC50: > 100 µM (inactive)
[8]
  IC50: 9.69 µM (active)
[9]
  EC50: 17.1 µM (active)
[10]
  EC50: 0.655 µM (active)

## c1ccc(-c2noc(-c3ccc4c(c3)OCO4)n2)nc1
Estrogen receptor beta [11]
  IC50: > 109 µM (not active)
BJ [12]
  EC50: > 133 µM (inactive)
[13]
  IC50: > 80 µM (inactive)
BJ [14]
  EC50: 1.47 µM (active)
BJ [15]
  EC50: 6.29 µM (inconclusive)
Estrogen receptor beta [16]
  IC50: 37.8 µM (not active)
[17]
  EC50: 1.1 µM (active)
[18]
  EC50: 1.67 µM (active)
[19]
  EC50: 0.105 µM (active)
BJ [20]
  EC50: 2.1 µM (inconclusive)

## CC(C1SC(=S)NC1=O)C1SC(=S)NC1=O (stereo not given)
Prothrombin
  IC50: 52.4 µM (active)
[7]
  IC50: > 100 µM (inactive)
[8]
  IC50: 45.4 µM (active)
[21]
  IC50: 80 µM (inactive)

## CC1(C)CC(=O)C(/C=N/CC2CCN(C(=O)Cc3ccccc3)CC2)=C(O)C1
Prothrombin
  IC50: > 100 µM (inactive)
[7]
  IC50: > 100 µM (inactive)
[8]
  IC50: > 100 µM (inactive)

## CCc1ccc(OCCNc2cc(N3CCNC(C)C3)ccc2[N+](=O)[O-])cc1 (stereo not given)
[22]
  AC50: 7.97 µM (active)
[23]
  CC50: 12.4 µM (active)
cells
  IC50: 24 µM (active)
[24]
  CC50: 12.4 µM (active)
[25]
  IC50: > 20 µM (inactive)
[26]
  CC50: 13.9 µM (active)
Nonstructural protein 1
  IC50: 37.4 µM (active)
Melanocortin receptor 4
  EC50: > 89.2 µM (inactive)
[27]
  AC50: 15.6 µM (active)

## CCN(CC)CCN1C(=O)/C(=C\c2ccc(Cl)c([N+](=O)[O-])c2)S/C1=N\c1ccc(OC)cc1
[22]
  AC50: 16.8 µM (active)
BJ [12]
  EC50: 0.537 µM (active)
[28]
  IC50: 2.75 µM (active)
BJ [14]
  EC50: 4.01 µM (active)
BJ [15]
  EC50: 1.65 µM (active)
[29]
  AC50: 10.4 µM (active)
[27]
  AC50: 2.11 µM (active)
[18]
  EC50: 2.86 µM (active)
Vero [30]
  CC50: 15.7 µM (active)
BJ [20]
  EC50: 2.1 µM (active)

## CC(=NNc1nc2ccccc2s1)c1ncccn1
[31]
  AC50: 1.61 µM (active)
Nonstructural protein 1
  IC50: 5.05 µM (active)
Vero [32]
  IC50: > 25 µM (active)
HEK293
  AC50: 14 µM (active)
Vero [30]
  CC50: 9.06 µM (active)

## O=C(NCc1ccccn1)c1cn(CCc2ccccc2)nn1
Coagulation factor XII
  IC50: > 50 µM (inactive)

## CC(=O)c1ccc(OC(=O)c2ccc(Br)o2)cc1
Coagulation factor XII
  IC50: 18.5 µM (active)

Source: ChEMBL document CHEMBL1201862, “PubChem BioAssay data set” (2004)
